Measurements reported in US20100035994A1, “NOVEL HYDRATE FORM OF O-DESMETHYL VENLAFAXINE SUCCINATE” (priority 2006, published 2010).

What was measured:
[1] = in vivo; cited from earlier work
[2] = converted into form III on milling; per U.S. Pat. No. 6,673,838; cited from earlier work
[3] = solubility of ODV succinate forms; assay type: physicochemical; conditions: novel hydrate form of the present invention

CN(C)CC(c1ccc(O)cc1)C1(O)CCCCC1.O=C(O)CCC(=O)O (stereo not drawn) [ODV succinate, O-desmethyl venlafaxine succinate]
absorption in the gastrointestinal tract [1]: well absorbed

CN(C)CC(c1ccc(O)cc1)C1(O)CCCCC1.O.O=C(O)CCC(=O)O (stereo not drawn) [ODV succinate monohydrate form I]
stability of polymorphic form on milling [2]: unstable

CN(C)CC(c1ccc(O)cc1)C1(O)CCCCC1.O=C(O)CCC(=O)O (stereo not drawn) [novel hydrate form of ODV succinate, O-desmethyl venlafaxine succinate]
solubility [3]: 55 mg/mL
